A melting point compilation (Tetko et al.; mined from patent text by program, amines drawn as free bases though some values may be those of a salt)

melting point [°C] | Structure (SMILES)
104 to 106 | CN(C)CCCN1c2ccccc2C(c2ccccc2Cl)=Nc2cccnc21
169 to 172 | Cc1cc(C(=O)N2Cc3ccc(C(=O)N(C)CC(O)CO)n3Cc3ccccc32)ccc1-c1ccccc1C(F)(F)F (configuration not stated)
117 | COc1ccc(-n2nnnc2C(F)(F)F)cc1C=O
219 to 220 | NC(=O)Cc1ccc(-c2csc(N=C(N)N)n2)o1
115 to 116 | COc1ccc(CCl)cc1OCc1nc(-c2ccco2)oc1C
136 to 137 | CCOC(=O)c1cccc(-c2cc(C(=O)OCC)c(N)[nH]2)c1
64 to 65 | CC(=O)N1CCC(COCc2cc(C(F)(F)F)cc(C(F)(F)F)c2)(c2ccccc2)CC1
131 | CC1(C(O)(C=Cc2ccc(Cl)cc2)Cn2cncn2)CC1(F)F (configuration not stated)
106 to 108 | C=C(Cl)CN1C(=O)c2ccccc2Oc2ncccc21
30 to 31 | CC(=O)CCCCOCCCc1ccc(N2CCCC2)cc1
52 to 53 | CN(C)CCc1cccc(OCCCCN2C(=O)c3ccccc3C2=O)c1
115 to 120 | CN1CCC(C2Oc3cc(F)ccc3Cn3cccc32)CC1 (configuration not stated)
85 to 87 | CC(C)(C)C(=O)OCCn1nc(-c2cc(C(C)(C)C)c(O)c(C(C)(C)C)c2)c2cccnc21
138 to 140 | CC(C)(O)C(=O)Nc1ccc(Sc2ccc(NS(C)(=O)=O)cc2)cc1Cl
86 to 89 | O=C(Nc1ccc(Cl)c(Cl)c1)OCCCC(O)c1ccccc1 (configuration not stated)
185 to 187 | O=C(O)c1cc(S(=O)(=O)N2CCC(CO)CC2)ccc1Cl
93 to 95 | CCc1nn(CCCO)c(CC)c1Oc1cc(C#N)cc(C#N)c1
264 to 266 | O=C(O)c1ccc2cccnc2c1O
128 | NC(=O)C1CN(Cc2ccccc2)CC1O (configuration not stated)
173 to 175 | O=C(NCc1ccc(F)cc1)c1ccnc(N2CCN(Cc3ccc(F)cc3)C2=O)c1
269 to 271 | CCOC(=O)C1=C2Nc3ccccc3N2CC1
143 | Cc1cc(C)c2c(c1)nc(NC1CCN(CCO)CC1)n2Cc1nc(C)ccc1O
54.5 to 55.5 | c1ccc(Oc2ccc(OCCCn3ccnc3)cc2)cc1
155 to 158 | CC(C)CCCC(C)C1CCC2C3=CC=C4CC(O)CC(O)C4(C)C3CCC21C (configuration not stated)
98 | CCCCOc1ccc(S(=O)(=O)C2(C(=O)NO)CCN(CC)CC2)cc1

melting point [°C] | Structure (SMILES)
226 | O=C(NCCN1CCCCC1n1c(=O)[nH]c2ccccc21)c1cccc(F)c1 (configuration not stated)
137 to 138 | CCOc1cc2c(Nc3cc(OC)c(Cl)cc3Cl)c(C#N)cnc2cc1OCCCN1CCN(C)CC1
81 to 85 | CCOC1=NC(OC)=NS(=O)(=O)N1C(C)C
257 to 258 | COc1cc(-c2ccc(C#N)cc2)oc1-c1ccc(C#N)cc1
61 to 62 | CN1C[C@H](CCCl)Oc2ncccc2C1=O
113 to 114 | COC(=O)Cc1ccc(OC(=S)N(C)C)cc1F
311 | NS(=O)(=O)c1cnc(NC(=O)c2cnn3c(C(F)F)cc(-c4ccc(C(F)(F)F)cc4)nc23)s1
124 to 126 | O=C1c2ccccc2C(=O)N1CCOCCOCCOCCOCCOCCN1C(=O)c2ccccc2C1=O
82 to 85 | CC=CCN1CCNC1=C[N+](=O)[O-]
112 to 113 | CCCCCC(CC(=O)Nc1cc(CNC(N)=O)ccc1C(C)(C)C)c1ccc(OC)cc1OC (configuration not stated)
125 to 129 | COc1ccc(Br)c(Sc2nc3c(N)nccc3n2CCCNC(C)C)c1
134 to 136 | CN1CCN(C(=O)c2ccc3n2Cc2ccccc2N(C(=O)c2ccc(C4CCCCC4)cc2)C3)CC1
249 to 251 | Nc1ccc(S(=O)(=O)c2cc(-c3cccc([N+](=O)[O-])c3)nc(N3CCCC3)c2)cc1
133 to 135 | C=CCc1nc(SC)nc2ccccc12
193 to 196 | COc1cc2ncnc(N3CCCc4ccccc43)c2cc1SC
187 to 188 | Cc1cc(Br)cnc1CCCCNN1Cc2ccccc2S(=O)(=O)N1
88 to 89 | COCOc1ccc2c(N)noc2c1
286 | O=C(O)CCn1c2ccc(O)cc2c2c3c(c(-c4ccccc4Cl)cc21)C(=O)NC3=O
139 to 140 | Cc1cc(N2CCN(c3ccccc3)CC2)c(C#N)c(Cl)n1
147 to 150 | Nc1nn(Cc2ccccc2)c2nc(N3CCOCC3)cc(-c3ccccc3)c12
86 to 88 | CSc1cc2c(cc1C(F)(F)F)N(C(=O)Nc1ccc(Oc3ccccc3)nc1)CC2
205 to 207 | CCOC(=O)Cn1c(CC(=O)O)cc2c(Cl)c(Cl)ccc21
289 to 291 | C(=C\c1cc(/C=C/c2ccc3cc[nH]c3c2)[nH]n1)/c1ccc2cc[nH]c2c1
274 to 276 | CCOc1ccc(C2C(C(=O)c3ccc(C(C)C)cc3)=C(O)C(=O)N2c2ccc(C)nn2)cn1 (configuration not stated)
125 to 126 | Cc1cc(C)c2c(c1O)C(NC(=O)CN1CCN(c3cccc(Cl)c3)CC1)C(C)(C)C2 (configuration not stated)

melting point [°C] | Structure (SMILES)
154 to 156 | COc1cc(Cc2sc3ccccc3c2S(=O)(=O)Nc2onc(C)c2Br)cc(OC)c1OC
86 | COC(=O)c1cc(OCC=C(Cl)Cl)cc(Cl)c1O
109 to 111 | Cc1ccc2c3c(c(=O)oc2c1)CN(Cc1ccccc1)CC3
204 to 206 | NS(=O)(=O)c1ccc(SCCCO)c(C(=O)O)c1
45 | CCCCCCOc1ccc(C=[N+]([O-])CCC)cc1
123 to 125 | CCCCOCCOc1ccc(-c2ccc3c(c2)C=C(C(=O)Nc2ccc(C(O)c4ccccn4)c(OC)c2)CCN3C(=O)C(F)(F)F)cc1 (configuration not stated)
158 to 159 | Cc1cc(C)nc(NC(=O)NS(=O)(=O)c2cccn2CCC#N)n1
203 to 204 | O=C(O)C(=O)Cc1ccsc1
200 to 202 | CN1C(=O)C(c2ccncc2)(c2cccc(-c3cc(F)ccc3F)c2)N=C1N (configuration not stated)
136 to 137 | CCC(CC)C(NS(=O)(=O)c1ccc(Cl)s1)c1ncnn1Cc1ccc(OC)cc1 (configuration not stated)
104 to 106 | CC(CCC(=O)Cl)C1CCC2C3CCC4CCCCC4(C)C3CCC12C (configuration not stated)
40 | COC(=O)C1OC(CC(C)C)(c2ccc(Cl)cc2)OC1C(=O)OC (configuration not stated)
62 to 64 | CC1(C)CC(OC(=O)CCl)CC(C)(C)N1OC1CCCCC1
186 to 188 | CCN1CC(C#CC2CC2)(C(F)(F)F)c2cc(Cl)ccc2NC1=O (configuration not stated)
131 to 132 | O=C1Nc2cccnc2N(CCCCN2CCCCC2)c2ccccc21
96 | CC1(C)SC(c2cc3ccccc3o2)NC1C(=O)O (configuration not stated)
155 to 157 | FC(F)(F)c1cccc(-c2ccnc3c(Cl)cnn23)c1
114 to 115 | CC1(C)CCC(Br)(C(Br)c2ccc(Cl)cc2)C(=O)C1 (configuration not stated)
114 to 117 | CC(=O)NC1CCCC1CC(Cl)C#N (configuration not stated)
76 to 78 | Cc1nc(CNC(=O)c2ccnc(N3CCN(Cc4ccc(F)cc4)C3=O)c2)cs1
129 to 131 | COc1ccc(N(CC(=O)NCCC(=O)O)C(=O)c2ccc(Cl)cc2)cc1
61 to 62 | CCCCCCCCCCCCCCC(=O)C(=O)NCCCC(=O)OC(C)(C)C
198 to 201 | NS(=O)(=O)c1ccc(-n2nc(CCl)cc2-c2ccc(Cl)cc2)cc1
129 to 130 | CCOC(OCC)c1cc(NC(c2ccccc2)(c2ccccc2)c2ccccc2)c(F)c(Cc2ccc(F)cc2)n1
128 to 130 | Cc1ccc2c(c1)C(=O)C1=NCCCN12

melting point [°C] | Structure (SMILES)
99 | COc1ccc(C(Nc2ccccc2)C(=O)OC(C)(C)C)cc1 (racemic)
150 to 153 | O=C1CC2(CC=CC2)CC(=O)N1
48 to 59 | c1ccc(CC[C@H]2CN(C3=Nc4ccccc4Sc4ccccc43)CCN2)cc1
214 | CN1CCC(=C2c3c(ccn3C)CCn3cnnc32)CC1
145 to 146 | Cc1ccc(-c2nc(CCOc3ccc(CN(O)C(N)=O)cc3)c(C)o2)cc1
213 to 214 | Cc1c(F)cc(C(=N)N)c(Oc2ncccc2Oc2cccnc2)c1F
162 to 164 | CCOC(=O)c1ccc(N2CCN(c3ccncc3)CC2)cc1
112 to 113 | Oc1ccccc1-c1nnco1
155 to 157 | CC(/C=C/n1ncc(-c2ccc(S(N)(=O)=O)cc2)c(-c2ccc(F)cc2)c1=O)C(F)(F)F (configuration not stated)
89 to 91 | Cc1c(NC(=O)OC(C)(C)C)cnn1-c1cccnc1
68 | CCOC(=O)N1CCN(c2ccc(Br)cn2)CC1
130 to 132 | OC1(c2ccc(C(F)(F)F)cc2)CCNCC1
148 to 150 | COc1cc(OC)c(-c2cc3ccccc3n2C)cc1C=CC(=O)c1ccc(S(N)(=O)=O)cc1
114 | CC(c1ccc(F)cc1)N1CCN(c2cc(Oc3cccc4ccncc34)ncn2)CC1 (configuration not stated)
187 to 188 | CCOP(=O)(CNc1ccc2cc([N+](=O)[O-])cc(-c3cccc4ccccc34)c2n1)OCC
98 | O=C(Nc1ccccc1F)O[C@@H]1CN=C(c2ccccc2)O[C@H]1c1ccccc1 (racemic)
92 to 95 | COC(=O)c1ccccc1-c1nc2cc(CBr)ccc2o1
208 to 210 | CN(C)NC(=O)NC(C(=O)O)c1cccs1 (configuration not stated)
177 to 179 | COC(=O)c1ccc2[nH]cc(CCCCN3CCN(c4ccc5c(c4)OCCO5)CC3)c2c1
135 to 136 | CC/C(=C\C#N)c1ccc2c(c1)C(CC)(CC)OC(=O)N2
133 to 135 | CC(=O)NC1C(Oc2nc[nH]c2C(N)=O)OC(COC(C)=O)C(OC(C)=O)C1OC(C)=O (configuration not stated)
195 to 196 | COCC(=O)NCc1cccc(-c2csc(N=C(N)N)n2)n1
148 to 150 | CCCCc1ncc(CC(Cc2ccccc2)C(=O)O)n1Cc1ccccc1 (configuration not stated)
130 to 140 | CN(N=Cc1c[nH]c2ccccc12)c1cc(N2CCOCC2)nc(OCCc2ccccn2)n1

Structure (SMILES) | melting point [°C]
NC(=O)CNC(=O)CN1CC(O)CC1=O (configuration not stated) | 158 to 160
CC(C)c1nc(-c2ccc(/C=C/C3(O)CN4CCC3CC4)cc2)no1 (configuration not stated) | 142 to 144
CNC(=O)ON=C1SCOC1COC (configuration not stated) | 105 to 106
